These are literature values, as cited in patent US20260015582A1, “METHODS OF T CELL DIFFERENTIATION AND COMPOSITIONS THEREOF” (THE CHILDREN'S MEDICAL CENTER CORPORATION, priority 2022, published 2026).

Broadly, the pIC50 is −log10 of the IC50, conventionally taken in molar units.

The target of one data set is HMT SU(VAR)3-9 (Drosophila melanogaster, UniProt P45975).
The target in the next data set is T1, DIM5 (Neurospora crassa, UniProt Q8X225).
T1 sequence (Q8X225 1-331): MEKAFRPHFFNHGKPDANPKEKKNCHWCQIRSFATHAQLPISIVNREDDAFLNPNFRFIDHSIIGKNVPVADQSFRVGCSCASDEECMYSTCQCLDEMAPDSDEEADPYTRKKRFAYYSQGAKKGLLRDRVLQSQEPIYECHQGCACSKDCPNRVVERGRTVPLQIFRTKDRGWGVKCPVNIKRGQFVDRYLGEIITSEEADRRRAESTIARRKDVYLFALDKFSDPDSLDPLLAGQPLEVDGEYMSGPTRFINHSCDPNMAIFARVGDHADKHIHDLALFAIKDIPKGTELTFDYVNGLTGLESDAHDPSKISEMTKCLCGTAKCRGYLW

A further data set has as its target T2, Lys4-specific SET7/9 (Homo sapiens, UniProt Q8WTS6).
T2 sequence (Q8WTS6 1-366): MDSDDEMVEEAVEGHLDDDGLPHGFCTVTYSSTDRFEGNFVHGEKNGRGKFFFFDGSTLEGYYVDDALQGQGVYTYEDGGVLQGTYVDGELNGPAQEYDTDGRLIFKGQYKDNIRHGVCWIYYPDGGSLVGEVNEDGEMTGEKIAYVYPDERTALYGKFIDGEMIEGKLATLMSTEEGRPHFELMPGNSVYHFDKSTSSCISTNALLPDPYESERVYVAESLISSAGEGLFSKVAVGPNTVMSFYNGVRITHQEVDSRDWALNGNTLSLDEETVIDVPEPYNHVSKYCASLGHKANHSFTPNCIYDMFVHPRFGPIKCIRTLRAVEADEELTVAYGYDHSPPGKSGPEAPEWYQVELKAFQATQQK

The target in another data set is T3, JMJD2E (Homo sapiens, UniProt B2RXH2).
T3 sequence (B2RXH2 1-506): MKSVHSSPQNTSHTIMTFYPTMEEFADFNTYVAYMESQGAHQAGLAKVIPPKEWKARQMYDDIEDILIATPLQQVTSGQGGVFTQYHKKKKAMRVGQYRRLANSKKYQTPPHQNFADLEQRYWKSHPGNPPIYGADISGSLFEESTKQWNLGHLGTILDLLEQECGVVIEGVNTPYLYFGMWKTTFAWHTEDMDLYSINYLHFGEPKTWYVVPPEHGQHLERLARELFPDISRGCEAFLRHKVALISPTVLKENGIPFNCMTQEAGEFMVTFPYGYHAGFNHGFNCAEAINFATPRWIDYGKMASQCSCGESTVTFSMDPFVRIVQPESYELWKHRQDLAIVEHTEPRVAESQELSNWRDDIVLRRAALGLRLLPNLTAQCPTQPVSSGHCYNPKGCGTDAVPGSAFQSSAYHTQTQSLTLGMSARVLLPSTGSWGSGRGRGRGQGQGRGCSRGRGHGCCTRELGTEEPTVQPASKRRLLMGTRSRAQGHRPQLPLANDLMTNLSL
As to conditions: ECSD enzymatic assays.

In another data set the test system is G9a/GLP. As to conditions: SAM-competitive manner.
In data set [1] the target is T4, class III isoenzyme SIRT1 (Homo sapiens, UniProt Q96EB6).
T4 sequence (Q96EB6 1-747): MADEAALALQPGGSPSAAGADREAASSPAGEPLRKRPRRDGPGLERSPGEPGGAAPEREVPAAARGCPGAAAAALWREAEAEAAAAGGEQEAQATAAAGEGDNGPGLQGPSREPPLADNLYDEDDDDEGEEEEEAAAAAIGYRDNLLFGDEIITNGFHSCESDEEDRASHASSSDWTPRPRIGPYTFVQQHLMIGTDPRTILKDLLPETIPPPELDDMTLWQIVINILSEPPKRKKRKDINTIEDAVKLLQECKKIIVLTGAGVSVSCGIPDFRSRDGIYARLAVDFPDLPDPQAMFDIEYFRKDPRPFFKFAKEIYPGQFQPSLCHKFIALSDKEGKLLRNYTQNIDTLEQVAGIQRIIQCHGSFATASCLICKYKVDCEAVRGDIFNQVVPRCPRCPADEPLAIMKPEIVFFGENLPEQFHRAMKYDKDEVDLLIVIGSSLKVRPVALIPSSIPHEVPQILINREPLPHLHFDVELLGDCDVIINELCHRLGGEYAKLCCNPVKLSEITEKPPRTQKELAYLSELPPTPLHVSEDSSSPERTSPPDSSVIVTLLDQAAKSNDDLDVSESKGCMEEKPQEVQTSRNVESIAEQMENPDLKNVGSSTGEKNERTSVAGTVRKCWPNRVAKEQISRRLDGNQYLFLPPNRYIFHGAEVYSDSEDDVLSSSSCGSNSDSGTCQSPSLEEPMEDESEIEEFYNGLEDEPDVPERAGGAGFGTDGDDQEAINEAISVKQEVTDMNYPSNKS

pIC50: −log10 of the molar value.

HMT SU(VAR)3-9, sequence (P45975 with tags, fused parts or gaps): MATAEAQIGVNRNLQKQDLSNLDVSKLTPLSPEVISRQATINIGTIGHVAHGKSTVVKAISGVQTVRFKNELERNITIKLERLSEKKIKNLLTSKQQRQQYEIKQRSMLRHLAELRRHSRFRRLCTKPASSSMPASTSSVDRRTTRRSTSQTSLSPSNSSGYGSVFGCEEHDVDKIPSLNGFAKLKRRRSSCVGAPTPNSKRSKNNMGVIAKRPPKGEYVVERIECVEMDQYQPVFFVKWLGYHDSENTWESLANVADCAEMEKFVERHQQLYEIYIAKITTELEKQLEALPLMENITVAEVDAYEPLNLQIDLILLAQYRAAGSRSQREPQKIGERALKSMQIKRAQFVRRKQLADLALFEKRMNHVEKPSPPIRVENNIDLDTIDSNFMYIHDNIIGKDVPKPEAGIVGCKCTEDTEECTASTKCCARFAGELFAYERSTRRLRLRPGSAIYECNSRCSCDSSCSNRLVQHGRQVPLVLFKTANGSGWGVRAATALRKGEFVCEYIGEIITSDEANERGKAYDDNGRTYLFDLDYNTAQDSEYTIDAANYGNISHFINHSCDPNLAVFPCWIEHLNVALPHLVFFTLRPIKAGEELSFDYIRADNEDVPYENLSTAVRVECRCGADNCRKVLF

For `CN1C(=O)C23CC4([C@]56C[C@@]78SS[C@@](CO)(C(=O)N7[C@H]5Nc5ccccc56)N(C)C8=O)c5ccccc5NC4N2C(=O)[C@]1(CO)SS3` (stereo partly shown) [Chaetocin], the pIC50 on HMT SU(VAR)3-9 was 6.10; on DIM5 it was 5.52; in the data set with Lys27-specific EZH2, less than 4.05; in the data set on Lys20-specific PRSET7, less than 4.05; on Lys4-specific SET7/9, less than 4.05; in the data set on G9a, 5.60.
`COc1cc2c(NC3CCN(C)CC3)nc(N3CCCN(C)CC3)nc2cc1OCCOCCN(C)C` [UNC0321]: the “selectivity over JMJD2E” value at JMJD2E is listed as greater than 1000 fold. Besides, at JMJD2E (inactive), the negative-log IC50 (pIC50) is less than 4.40.
For `COc1ccc(C(=O)Oc2ccc(CCn3c(NC(=O)c4ccc(C(F)(F)F)cc4)nc4cc(C(=O)O)ccc43)cc2)cc1` [BIX-01338], the G9a/GLP effective conc. result in the data set on G9a/GLP is “G9a/GLP effective conc. = 15 μM”.
As to `CCCCc1nc2cc(/C=C/C(=O)NO)ccc2n1CCN(CC)CC` [SB939, Pracinostat], the “activity against the class III isoenzyme SIRT1” value in data set [1] is “no activity”.
